Columns and labels:
[1] = molecular target: T1, ERα (Homo sapiens, UniProt P03372); assay: Estrogen receptor-alpha (ERα) degradation assay in MCF7 cells using In-Cell Western assay; type: cell-based; parameters: assessed for their activity in degrading ERα in MCF-7 cells via western blot; endogenous in cells; host or cells: MCF7 cells; details: ER-alpha degradation in MCF7 cells, 5 days of incubation
T1 sequence (P03372 1-595): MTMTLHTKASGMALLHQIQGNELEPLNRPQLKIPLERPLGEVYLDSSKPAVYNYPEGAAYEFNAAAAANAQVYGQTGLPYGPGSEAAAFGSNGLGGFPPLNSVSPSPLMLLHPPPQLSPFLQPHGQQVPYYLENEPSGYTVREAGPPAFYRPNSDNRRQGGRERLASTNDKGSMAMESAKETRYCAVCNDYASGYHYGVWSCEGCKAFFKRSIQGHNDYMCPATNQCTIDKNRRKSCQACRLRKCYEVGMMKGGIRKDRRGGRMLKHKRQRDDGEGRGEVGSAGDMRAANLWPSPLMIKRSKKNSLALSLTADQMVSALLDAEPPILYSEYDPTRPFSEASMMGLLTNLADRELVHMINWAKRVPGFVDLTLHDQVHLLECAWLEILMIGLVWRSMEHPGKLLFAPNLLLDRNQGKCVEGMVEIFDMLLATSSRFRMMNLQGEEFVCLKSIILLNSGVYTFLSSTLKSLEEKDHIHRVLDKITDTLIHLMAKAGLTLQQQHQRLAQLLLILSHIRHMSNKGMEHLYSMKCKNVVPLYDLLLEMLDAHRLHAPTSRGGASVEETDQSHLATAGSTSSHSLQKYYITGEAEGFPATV
Protocol: Estrogen Receptor-Alpha (ERα) Degradation Assay Using in-Cell Western™ Assay for Table 5.
Degradation of ERα by claimed compounds were determined in MCF7 cells using an In-Cell Western™ assay. Briefly, MCF7 cells were plated in 96-well plates (2000 cells per well in 100 μl media) and incubated at 37° C. under an atmosphere of 5% CO2 in a humidified incubator overnight. One-hundred (100) μI of media containing test compound (at 2x concentration) was added to the appropriate wells to provide 11 serially decreasing concentrations (top final concentration, 1 μM then 3-fold less for the next 10 concentrations); a vehicle control (DMSO) was also added for each compound. For each experiment, all compounds were assayed on duplicate plates. Cells were then incubated for 3 or 5 days in the above-mentioned environment. The assay was terminated by removal of media, a single wash with ice-cold PBS and the addition of 50 μl paraformaldehyde (PFA: 4% in PBS). After 15 minutes in PFA at room temperature, the cells were permeabilized in Tris-phosphate-buffered saline with Tween (0.1%) (TBST) supplemented with Triton X-100 (0.5%) for 15 minutes. Cells were then blocked in BSA (TBST with BSA, 3%) for one hour. Primary antibodies for the detection of ERa (rabbit monoclonal, 1:1000, Cell Signaling Technology Catalog #8644) and tubulin (mouse monoclonal, 1:5000, Sigma Catalog #T6074) in TBST with BSA (3%) were added. The cells were incubated overnight at 4° C. The cells were then washed thrice with TBST at room temperature and then incubated with anti-rabbit and anti-mouse fluorescently-labelled secondary antibodies (IRDye®; LI-COR; Lincoln, Nebr.) in LI-COR blocking buffer (Catalog #927-50000) for one hour at room temperature. Following 3 washes with TBST, the buffer was removed and the plates were read on an Odyssey® infrared imaging system (LI-COR®, Lincoln, Nebr.) at 700 nm and 800 nm. Using commercial software (ImageStudio™; LI-COR, Lincoln, Nebr.), the staining intensity for ERa and tubulin in each well was quantified and exported for analysis. For each data point, ERa intensity was normalized to tubulin intensity and for each compound all normalized intensity values were normalized to the vehicle control. DC50 and Dmax values were determined following a 4-parameter IC50 curve fit using ACAS dose response module (McNeil & Co Inc.).

[2] = molecular target: T1, ERα; assay: ERE luciferase reporter gene assay in T47D-KBluc cells (target engagement); type: cell-based; parameters: T47D human breast cancer cells stably transfected with estrogen responsive element/promoter/luciferase reporter gene; host or cells: T47D-KBluc cells; details: 10% FBS, 24 hours, Table 3 cereblon centric PROTACs, read-out: ER-α Luciferase IC50
Summary of the method: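 T47D-KBluc breast cancer cells, which carry a stable ERE-luciferase reporter, were grown in RPMI with 10% FBS (about 10 pM estrogen) and exposed to PROTACs for 24 h. The 12-point, 3-fold series ran from 300 nM to 2 pM. Luciferase was read after lysis, and IC50 was fitted from duplicates.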

SMILES | DC50 [1] | Dmax [1] | IC50 [2]
O=C1CCC(N2Cc3cc(N4CCN(CCCOc5ccc(Oc6c(-c7ccc(F)c(F)c7)sc7cc(O)ccc67)cc5)CC4)ccc3C2=O)C(=O)N1 (stereo not drawn) [Compound 221, 3-[5-[4-[3-[4-[2-(3,4-difluorophenyl)-6-hydroxy-benzothiophen-3-yl]oxyphenoxy]propyl]piperazin-1-yl]-1-oxo-isoindolin-2-yl]piperidine-2,6-dione] | 1 to 10 nM | 50 to 75% | 2.4 nM
O=C1CCC(N2C(=O)c3ccc(N4CCN(CC5CN(CCOc6ccc(Oc7c(-c8ccc(Br)cc8)sc8cc(O)ccc78)cc6)C5)CC4)cc3C2=O)C(=O)N1 (stereo not drawn) [Compound 185, 5-[4-[[1-[2-[4-[2-(4-bromophenyl)-6-hydroxy-benzothiophen-3-yl]oxyphenoxy]ethyl]azetidin-3-yl]methyl]piperazin-1-yl]-2-(2,6-dioxo-3-piperidyl)isoindoline-1,3-dione] | 1 to 10 nM | 50 to 75% | 4.5 nM
O=C1CCC(N2C(=O)c3ccc(NCCCN4CCN(CCOc5ccc(Oc6c(-c7ccc(Br)cc7)sc7cc(O)ccc67)cc5)CC4)cc3C2=O)C(=O)N1 (stereo not drawn) [Compound 177, 5-[3-[4-[2-[4-[2-(4-bromophenyl)-6-hydroxy-benzothiophen-3-yl]oxyphenoxy]ethyl]piperazin-1-yl]propylamino]-2-(2,6-dioxo-3-piperidyl)isoindoline-1,3-dione] | 1 to 10 nM | > 75% | 2.3 nM
O=C1CCC(N2Cc3nc(N4CCN(CC5CCN(c6ccc(Oc7c(-c8ccc(O)cc8)sc8cc(O)ccc78)cc6)CC5)CC4)ccc3C2=O)C(=O)N1 (stereo not drawn) [Compound 243, 3-[2-[4-[[1-[4-[6-hydroxy-2-(4-hydroxyphenyl)benzothiophen-3-yl]oxyphenyl]-4-piperidyl]methyl]piperazin-1-yl]-5-oxo-7H-pyrrolo[3,4-b]pyridin-6-yl]piperidine-2,6-dione] | 1 to 10 nM | 50 to 75% | 0.18 nM
O=C1CCC(N2Cc3cc(N4CCN(CC5CCN(c6ccc(Oc7c(-c8ccc(F)cc8)sc8cc(O)ccc78)cc6)CC5)CC4)ccc3C2=O)C(=O)N1 (stereo not drawn) [Compound 226, 3-[5-[4-[[1-[4-[2-(4-fluorophenyl)-6-hydroxy-benzothiophen-3-yl]oxyphenyl]-4-piperidyl]methyl]piperazin-1-yl]-1-oxo-isoindolin-2-yl]piperidine-2,6-dione] | 1 to 10 nM | > 75% | 1.2 nM
O=C1CCC(N2Cc3cc(CCCCN4CCCN(CCOc5ccc(Oc6c(-c7ccc(Br)cc7)sc7cc(O)ccc67)cc5)CC4)ccc3C2=O)C(=O)N1 (stereo not drawn) [Compound 199, 3-[5-[4-[4-[2-[4-[2-(4-bromophenyl)-6-hydroxybenzothiophen-3-yl]oxyphenoxy]ethyl]-1,4-diazepan-1-yl]butyl]-1-oxo-isoindolin-2-yl]piperidine-2,6-dione] | 1 to 10 nM | 50 to 75% | 0.82 nM
O=C1CCC(N2C(=O)c3ccc(N4CCN(CC5CCN(c6ccc(Oc7c(-c8ccc(Br)cc8)sc8cc(O)ccc78)cc6)CC5)CC4)cc3C2=O)C(=O)N1 (stereo not drawn) [Compound 228, 5-[4-[[1-[4-[2-(4-bromophenyl)-6-hydroxy-benzothiophen-3-yl]oxyphenyl]-4-pipendyl]methyl]piperazin-1-yl]-2-(2,6-dioxo-3-piperidyl)isoindoline-1,3-dione] | 1 to 10 nM | > 75% | 24.9 nM
O=C1CCC(N2Cc3cc(N4CCN(CC5CCN(c6ccc(Oc7c(-c8ccc(Br)cc8)sc8cc(O)ccc78)cc6)CC5)CC4)ccc3C2=O)C(=O)N1 (stereo not drawn) [Compound 231, 3-[5-[4-[[1-[4-[2-(4-bromophenyl)-6-hydroxy-benzothiophen-3-yl]oxyphenyl]-4-piperidyl]methyl]piperazin-1-yl]-1-oxo-isoindolin-2-yl]piperidine-2,6-dione] | 1 to 10 nM | 50 to 75% | 7.1 nM

— patent publication US11384063B2, “Modulators of estrogen receptor proteolysis and associated methods of use” (Arvinas Operations, Inc., priority 2017, dated 2022)
